According to paper PMC7403827 (Clinical and Translational Medicine, 2020):
Like-named read-outs stand apart in the source and are kept apart here.

Experiments:
[1] = Pharmacokinetic analyses: apatinib and gefitinib plasma concentrations (LC–MS/MS, non‐compartmental); settings: for half-life: T1/2, gefitinib 250 mg + apatinib 500 or 250 mg
Source text: In the two cohorts, PK assessment consisted of a single‐dose‐administration on Cycle 1, Day 1's (C1, D1) test and a continuous‐dose‐administration on Cycle 1, Day 15′s (C1, D15) test. For detailed blood collection administration, see the supplementary materials. […] PK parameters, including maximum plasma concentration (C max), area under the plasma concentration‐time curve (AUC), time to reach maximum plasma concentration (T max), elimination half‐life (T 1/2), steady state concentration (Css), area under the plasma concentration‐time curve for steady state (AUCss), steady state volume of distribution (Vdss), and steady state clearance rate (CLss) were calculated using non‐compartmental methods with Winnonlin 7 software. The AUC was estimated by using the linear trapezoidal rule method and T 1/2 was determined by linear regression of the terminal slope of the logarithmic plasma concentration‐time profile. Descriptive statistics were measured for the PK parameters using mean with its corresponding standard deviation (SD).
In the two cohorts, PK assessment consisted of a single-dose-administration (C1D1) test and a continuous-dose-administration (C1D15) test. Serial peripheral blood samples were collected at pre-dose and 1, 2, 3, 4, 5, 6, 8, 12 and 24 post-dose for the single dose PK test. For the continuous PK test, serial peripheral blood samples were collected at pre-dose and at 0.5, 1, 2, 3, 4, 5, 6, 8, 12, and 24 hours post-dose on […]. Samples were centrifuged, and plasma frozen at −80°C refrigerator until further analysis.
Descriptive statistics (mean and standard deviation) were estimated for PK parameters. Median values and ranges were provided for time to reach maximum plasma concentration.

[2] = Gefitinib 225mg, Japanese patients, ref [3] Nakagawa K et al., Annals of Oncology 2003, cited from earlier work
[3] = cited from earlier work
EGFR‐mutant NSCLC = settings: cited from earlier work

## COc1cc2ncnc(Nc3ccc(F)c(Cl)c3)c2cc1OCCCN1CCOCC1 [Gefitinib]
[1]; Table S6, Gefitinib 250mg + apatinib, this study, geometric mean, SD
  Cmaxmulti: 469 (134) ng/ml
[1]; gefitinib 250 mg + apatinib 500 or 250 mg, Day 15 (n = 11), Median (range)
  Tmax: 4 (3‐6) h
[1]; human, plasma, oral, AUC0-24, Table S6, Gefitinib 250mg + apatinib, this study, geometric mean, SD
  AUC(0-t): 3330 ng·h/mL
[1]; human, plasma, oral, AUC0-24multi, Table S6, Gefitinib 250mg + apatinib, this study, multiple-dosage regimen, geometric mean, SD
  AUC: 8130 ng·h/mL
[1]; human, plasma, oral, AUC0‐24, gefitinib 250 mg + apatinib 500 or 250 mg, Day 1 (n = 11), Table 2: Geometric Mean (%CV)
  AUC: 3440 ng·h/mL
[1]; human, plasma, oral, AUC0‐24, gefitinib 250 mg + apatinib 500 or 250 mg, Day 15 (n = 11), Table 2: Geometric Mean (%CV)
  AUC: 7980 ng·h/mL
[1]; human, plasma, oral, AUC0‐∞, gefitinib 250 mg + apatinib 500 or 250 mg, Day 1 (n = 11), Geometric Mean (%CV)
  AUC: 6400 ng·h/mL
[1]; human, plasma, oral, AUC0‐∞, gefitinib 250 mg + apatinib 500 or 250 mg, Day 15 (n = 11), Geometric Mean (%CV)
  AUC: 18100 ng·h/mL
[1]; human, plasma, oral, AUCss, steady state, Gefitinib 250mg + apatinib, Mean±SD
  AUC: 7220 ± 1730 ng·h/mL
[1]; human, plasma, oral, CL, gefitinib 250 mg + apatinib 500 or 250 mg, Day 1 (n = 11), Mean (SD)
  clearance: 683 mL/min
[1]; human, plasma, oral, CL, gefitinib 250 mg + apatinib 500 or 250 mg, Day 15 (n = 11), Mean (SD)
  clearance: 533 mL/min
[1]; human, plasma, oral, CLss, steady state, Gefitinib 250mg + apatinib, Mean±SD
  clearance: 617 mL/min
[1]; human, plasma, oral, Table S6, Gefitinib 250mg + apatinib, this study, geometric mean, SD
  Cmax: 488 ± 28 ng/mL
[1]; human, plasma, oral, gefitinib 250 mg + apatinib 500 or 250 mg, Day 1 (n = 11), Table 2: Geometric Mean (%CV)
  Cmax: 272 ng/mL
[1]; human, plasma, oral, gefitinib 250 mg + apatinib 500 or 250 mg, Day 15 (n = 11), Table 2: Geometric Mean (%CV)
  Cmax: 465 ng/mL
[1]; human, plasma, oral, Day 1 (n = 11), Mean (SD)
  half-life: 1260 min
[1]; human, plasma, oral, Day 15 (n = 11), Mean (SD)
  half-life: 1800 min
[1]; human, plasma, oral, Tmax, Table S6, Gefitinib 250mg + apatinib, this study, geometric mean, SD
  Tmax: 3.9 h
[1]; human, plasma, oral, Tmax, gefitinib 250 mg + apatinib 500 or 250 mg, Day 1 (n = 11), Median (range)
  Tmax: 3 h
[1]; human, plasma, oral, Tmax, gefitinib 250 mg + apatinib 500 or 250 mg, Day 15 (n = 11), Median (range)
  Tmax: 3 h
[1]; human, plasma, oral, Vd, gefitinib 250 mg + apatinib 500 or 250 mg, Day 1 (n = 11), Mean (SD)
  Vd: 1100 L
[1]; human, plasma, oral, Vd, gefitinib 250 mg + apatinib 500 or 250 mg, Day 15 (n = 11), Mean (SD)
  Vd: 1330 L
[1]; human, plasma, oral, Vdss, steady state, Gefitinib 250mg + apatinib, Mean±SD
  Vd: 880 ± 234 L
[2]; multiple-dosage regimen
  AUC0-24multi: 5191 (61) ng·h/ml
[2]
  AUC0-24: 1986 (58) ng·h/ml
  Cmax: 150 (92) ng/ml
  Cmaxmulti: 341 (61) ng/ml
  Tmax: 5 (3-7) h
[3]
  MTD: 750 mg/day

## C=CC(=O)Nc1cc(Nc2nccc(-c3cn(C)c4ccccc34)n2)c(OC)cc1N(C)CCN(C)C [Osimertinib]
EGFR‐mutant NSCLC; AURA3 study
  mPFS: 10.1 months

## C#Cc1cccc(Nc2ncnc3cc(OCCOC)c(OCCOC)cc23)c1 [erlotinib]
EGFR‐mutant NSCLC; ARTEMIS (CTONG 1509) study
  mPFS: 11.3 months
EGFR‐mutant NSCLC; JO25567 study
  PFS: 9.7 months
EGFR‐mutant NSCLC; RELAY study
  PFS: 12.4 months
